# Key:
# [1] = molecular target: T1, human vasopressin V1a receptor (Homo sapiens, UniProt P37288); experiment: Human vasopressin V1a receptor binding assay; settings: 1321N1 cell membranes, [3H]vasopressin; read-out: Ki (nM) on hV1a cell line
# Outline: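 Ki values come from IC50 via Cheng-Prusoff (KD from prior Scatchard), averaged over at least two independent runs. Human V1a membranes were incubated with radioligand 60 minutes at 27° C., bound ligand collected by filtration; (Arg^8)-vasopressin at 1.2×10^−6 M defined non-specific binding.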
# [2] = molecular target: T1, human vasopressin V1a receptor; experiment: Functional assay on human vasopressin V1a receptor expressing cell line (intracellular Ca2+ fluorescence); type: cell-based; settings: 1321N1 cells, (Arg8)-vasopressin at EC80; read-out: IC50 (nM) on hV1a cell line
# T1 sequence (P37288 whole entry): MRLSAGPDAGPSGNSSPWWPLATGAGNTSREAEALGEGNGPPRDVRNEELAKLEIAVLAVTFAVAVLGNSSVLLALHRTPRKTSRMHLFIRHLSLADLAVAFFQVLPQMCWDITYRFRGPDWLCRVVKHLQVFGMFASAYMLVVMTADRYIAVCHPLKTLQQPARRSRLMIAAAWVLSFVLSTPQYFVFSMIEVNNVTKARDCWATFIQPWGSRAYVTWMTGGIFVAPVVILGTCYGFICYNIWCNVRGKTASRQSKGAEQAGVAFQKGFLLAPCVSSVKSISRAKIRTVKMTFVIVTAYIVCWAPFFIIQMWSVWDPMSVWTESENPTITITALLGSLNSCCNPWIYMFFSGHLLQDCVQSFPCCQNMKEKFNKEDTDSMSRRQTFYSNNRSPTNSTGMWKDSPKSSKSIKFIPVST
Compound,Ki [1],IC50 [2]
"COC1Cc2cc(Cl)ccc2-n2c(nnc2[C@H]2CC[C@@H](N3CCN(C)CC3)CC2)C1 (stereo partly drawn) [Example 183, 8-chloro-5-methoxy-1-[cis-4-(4-methylpiperazin-1-yl)cyclohexyl]-5,6-dihydro-4H-[1,2,4]triazolo[4,3-a][1]benzazepine]",102 nM,2120 nM
"COC1Cc2cc(Cl)ccc2-n2c(nnc2C2CCN(Cc3cccnc3)C2)C1 (stereo not shown) [Example 184, 8-chloro-5-methoxy-1-[1-(pyridin-3-ylmethyl)pyrrolidin-3-yl]-5,6-dihydro-4H-[1,2,4]triazolo[4,3-a][1]benzazepine]",0.6 nM,25 nM
"COC1Cc2cc(Cl)ccc2-n2c(nnc2C2CCN(Cc3ccccn3)C2)C1 (stereo not shown) [Example 185, 8-chloro-5-methoxy-1-[1-(pyridin-2-ylmethyl)pyrrolidin-3-yl]-5,6-dihydro-4H-[1,2,4]triazolo[4,3-a][1]benzazepine]",4.1 nM,19 nM
"COC1Cc2cc(Cl)ccc2-n2c(nnc2C2CCN(C(=O)c3cccnc3)C2)C1 (stereo not shown) [Example 187, [3-(8-chloro-5-methoxy-5,6-dihydro-4H-[1,2,4]triazolo[4,3-a][1]benzazepin-1-yl)pyrrolidin-1-yl](pyridin-3-yl)methanone]",86 nM,4750 nM
"Clc1ccc2c(c1)CC1(Cc3nnc(C4CCN([C@@H]5CCOC5)CC4)n3-2)OCCO1 [Example 188, 8′-chloro-1′-{1-[(3R)tetrahydrofuran-3-yl]piperidin-4-yl}-4′H,6′H-spiro[1,3-dioxolane-2,5′-[1,2,4]triazolo[4,3-a][1]benzazepine]]",0.5 nM,5.3 nM
"COC1Cc2cc(Cl)ccc2-n2c(nnc2C2CCN(C(=O)c3ccccn3)C2)C1 (stereo not shown) [Example 189, [3-(8-chloro-5-methoxy-5,6-dihydro-4H-[1,2,4]triazolo[4,3-a][1]benzazepin-1-yl)pyrrolidin-1-yl](pyridin-2-yl)methanone]",10 nM,229 nM
"CN(C)[C@H]1CC[C@H](c2nnc3n2-c2ccc(Cl)cc2CC2(C3)OCCO2)CC1 [Example 190, Trans-4-(8′-chloro-4′H,6′H-spiro[1,3-dioxolane-2,5′-[1,2,4]triazolo[4,3-a][1]benzazepin]-1′-yl)-N,N-dimethylcyclohexanamine]",5.3 nM,105 nM
"COC1Cc2cc(Cl)ccc2-n2c(nnc2N2CCC3(CC2)OCc2ccccc23)C1 (stereo not shown) [Example 191, 8-chloro-5-methoxy-1-(1′H,3H-spiro[2-benzofuran-1,4′-piperidin]-1′-yl)-5,6-dihydro-4H-[1,2,4]triazolo[4,3-a][1]benzazepine]",0.3 nM,2.9 nM
"COC1Cc2cc(Cl)ccc2-n2c(nnc2N2CCN(c3ncccc3Cl)CC2)C1 (stereo not shown) [Example 192, 8-chloro-1-[4-(3-chloropyridin-2-yl)piperazin-1-yl]-5-methoxy-5,6-dihydro-4H-[1,2,4]triazolo[4,3-a][1]benzazepine]",0.8 nM,6.3 nM
"Clc1ccc2c(c1)CC1(Cc3nnc([C@H]4CC[C@H](Nc5ccccn5)CC4)n3-2)OCCO1 [Example 193, N-[trans-4-(8′-chloro-4′H,6′H-spiro[1,3-dioxolane-2,5′-[1,2,4]triazolo[4,3-a][1]benzazepin]-1′-yl)cyclohexyl]pyridin-2-amine]",0.1 nM,0.9 nM
"COC1Cc2cc(Cl)ccc2-n2c(nnc2N2CCC(Oc3ccccn3)CC2)C1 (stereo not shown) [Example 197, 8-chloro-5-methoxy-1-[4-(pyridin-2-yloxy)piperidin-1-yl]-5,6-dihydro-4H-[1,2,4]triazolo[4,3a][1]benzazepine]",0.3 nM,4.1 nM
CN1CCC(C(=O)N[C@H]2Cc3cc(Cl)ccc3-n3c(nnc3[C@H]3CC[C@H](Oc4ccccn4)CC3)C2)CC1 [Example 200],114 nM,1190 nM
"O/N=C1/Cc2cc(Cl)ccc2-n2c(nnc2[C@H]2CC[C@H](Oc3ccccn3)CC2)C1 [Example 208, 8-chloro-N-hydroxy-1-[trans-4-(pyridin-2-yloxy)cyclohexyl]-4H-[1,2,4]triazolo[4,3-a][1]benzazepin-5(6H)-imine]",0.1 nM,2.2 nM
"O=C(N[C@H]1Cc2cc(Cl)ccc2-n2c(nnc2[C@H]2CC[C@H](Oc3ccccn3)CC2)C1)C1CC(F)(F)C1 [Example 210, N-{(5S)-8-chloro-1-[trans-4-(pyridin-2-yloxy)cyclohexyl]-5,6-dihydro-4H-[1,2,4]triazolo[4,3-a][1]benzazepin-5-yl}-3,3-difluorocyclobutanecarboxamide]",56 nM,292 nM
"O=C(OC1Cc2cc(Cl)ccc2-n2c(nnc2[C@H]2CC[C@H](Oc3ccccn3)CC2)C1)C1CCC(F)(F)CC1 (stereo partly drawn) [Example 212, 8-chloro-1-[trans-4-(pyridin-2-yloxy)cyclohexyl]-5,6-dihydro-4H-[1,2,4]triazolo[4,3-a][1]benzazepin-5-yl 4,4-difluorocyclohexanecarboxylate]",2.8 nM,34 nM
"O=C(N[C@H]1Cc2cc(Cl)ccc2-n2c(nnc2[C@H]2CC[C@H](Oc3ccccn3)CC2)C1)C1CCC(F)(F)CC1 [Example 214, N-{(5S)-8-chloro-1-[trans-4-(pyridin-2-yloxy)cyclohexyl]-5,6-dihydro-4H-[1,2,4]triazolo[4,3-a][1]benzazepin-5-yl}-4,4-difluorocyclohexanecarboxamide]",66 nM,672 nM

# The next lines start with the values.
Ki [1],IC50 [2],Compound
0.4 nM,1.2 nM,"N#CCC(=O)N[C@@H]1Cc2cc(Cl)ccc2-n2c(nnc2[C@H]2CC[C@H](Oc3ccccn3)CC2)C1 [Example 186, N-(5R)-8-chloro-1-[trans-4-(pyridin-2-yloxy)cyclohexyl]-5,6-dihydro-4H-[1,2,4]triazolo[4,3-a][1]benzazepin-5-yl-2-cyanoacetamide]"
1.1 nM,22 nM,"CN(C)CCN[C@@H]1Cc2cc(Cl)ccc2-n2c(nnc2[C@H]2CC[C@H](Oc3ccccn3)CC2)C1 [Example 194, N′-{(5R)-8-chloro-1-[trans-4-(pyridin-2-yloxy)cyclohexyl]-5,6-dihydro-4H-[1,2,4]triazolo[4,3-a][1]benzazepin-5-yl}-N,N-dimethylethane-1,2-diamine]"
0.3 nM,1.6 nM,"CC(=O)OC1Cc2cc(Cl)ccc2-n2c(nnc2[C@H]2CC[C@H](Oc3ccccn3)CC2)C1 (stereo partly drawn) [Example 195, 8-chloro-1-[trans-4-(pyridin-2-yloxy)cyclohexyl]-5,6-dihydro-4H-[1,2,4]triazolo[4,3-a][1]benzazepin-5-yl acetate]"
0.5 nM,2.7 nM,"OCCN[C@@H]1Cc2cc(Cl)ccc2-n2c(nnc2[C@H]2CC[C@H](Oc3ccccn3)CC2)C1 [Example 196, 2-({(5R)-8-chloro-1-[trans-4-(pyridin-2-yloxy)cyclohexyl]-5,6-dihydro-4H-[1,2,4]triazolo[4,3-a][1]benzazepin-5-yl}amino)ethanol]"
2.2 nM,23 nM,Clc1ccc2c(c1)C[C@H](NCC1CC1)Cc1nnc([C@H]3CC[C@H](Oc4ccccn4)CC3)n1-2 [Example 199]
3.9 nM,19 nM,O=C(N[C@H]1Cc2cc(Cl)ccc2-n2c(nnc2[C@H]2CC[C@H](Oc3ccccn3)CC2)C1)C(F)(F)F [Example 201]
0.4 nM,1 nM,"COCCOC1Cc2cc(Cl)ccc2-n2c(nnc2[C@H]2CC[C@H](Oc3ccccn3)CC2)C1 (stereo partly drawn) [Example 202, 8-chloro-5-(2-methoxyethoxy)-1-[trans-4-(pyridin-2-yloxy)cyclohexyl]-5,6-dihydro-4H-[1,2,4]triazolo[4,3-a][1]benzazepine]"
0.2 nM,0.9 nM,"FC1Cc2cc(Cl)ccc2-n2c(nnc2[C@H]2CC[C@H](Oc3ccccn3)CC2)C1 (stereo partly drawn) [Example 206, 8-chloro-5-fluoro-1-[trans-4-(pyridin-2-yloxy)cyclohexyl]-5,6-dihydro-4H-[1,2,4]triazolo[4,3-a][1]benzazepine]"
0.3 nM,4.2 nM,"CS(=O)(=O)CCOC1Cc2cc(Cl)ccc2-n2c(nnc2[C@H]2CC[C@H](Oc3ccccn3)CC2)C1 (stereo partly drawn) [Example 207, 8-chloro-5-[2-(methylsulfonyl)ethoxy]-1-[trans-4-(pyridin-2-yloxy)cyclohexyl]-5,6-dihydro-4H-[1,2,4]triazolo[4,3-a][1]benzazepine]"
0.2 nM,1.6 nM,"C#CCN(C)[C@H]1Cc2cc(Cl)ccc2-n2c(nnc2[C@H]2CC[C@H](Oc3ccccn3)CC2)C1 [Example 209, (5S)-8-chloro-N-methyl-N-(prop-2-yn-1-yl)-1-[trans-4-(pyridin-2-yloxy)cyclohexyl]-5,6-dihydro-4H-[1,2,4]triazolo[4,3-a][1]benzazepin-5-amine]"
0.7 nM,1.3 nM,"C#CCOC1Cc2cc(Cl)ccc2-n2c(nnc2[C@H]2CC[C@H](Oc3ccccn3)CC2)C1 (stereo partly drawn) [Example 211, 8-chloro-5-(prop-2-yn-1-yloxy)-1-[trans-4-(pyridin-2-yloxy)cyclohexyl]-5,6-dihydro-4H-[1,2,4]triazolo[4,3-a][1]benzazepine]"
0.6 nM,5.5 nM,"O=C(OC1Cc2cc(Cl)ccc2-n2c(nnc2[C@H]2CC[C@H](Oc3ccccn3)CC2)C1)C1CC(F)(F)C1 (stereo partly drawn) [Example 213, 8-chloro-1-[trans-4-(pyridin-2-yloxy)cyclohexyl]-5,6-dihydro-4H-[1,2,4]triazolo[4,3-a][1]benzazepin-5-yl 3,3-difluorocyclobutanecarboxylate]"
0.2 nM,3.7 nM,"N#CCC(=O)OC1Cc2cc(Cl)ccc2-n2c(nnc2[C@H]2CC[C@H](Oc3ccccn3)CC2)C1 (stereo partly drawn) [Example 215, 8-chloro-1-[trans-4-pyridin-2-yloxy)cyclohexyl]-5,6-dihydro-4H-[1,2,4]triazolo[4,3-a][1]benzazepin-5-yl cyanoacetate]"
